Literature values as cited in patent publication US9687482B2, “Stable pharmaceutical composition comprising solifenacin, and method for preparing the same” (CJ HEALTHCARE CORPORATION, priority 2014, dated 2017).

Molecular target: muscarinic M3 receptors (Homo sapiens, UniProt P20309)
Details: reported

Sequence of muscarinic M3 receptors (P20309 whole entry): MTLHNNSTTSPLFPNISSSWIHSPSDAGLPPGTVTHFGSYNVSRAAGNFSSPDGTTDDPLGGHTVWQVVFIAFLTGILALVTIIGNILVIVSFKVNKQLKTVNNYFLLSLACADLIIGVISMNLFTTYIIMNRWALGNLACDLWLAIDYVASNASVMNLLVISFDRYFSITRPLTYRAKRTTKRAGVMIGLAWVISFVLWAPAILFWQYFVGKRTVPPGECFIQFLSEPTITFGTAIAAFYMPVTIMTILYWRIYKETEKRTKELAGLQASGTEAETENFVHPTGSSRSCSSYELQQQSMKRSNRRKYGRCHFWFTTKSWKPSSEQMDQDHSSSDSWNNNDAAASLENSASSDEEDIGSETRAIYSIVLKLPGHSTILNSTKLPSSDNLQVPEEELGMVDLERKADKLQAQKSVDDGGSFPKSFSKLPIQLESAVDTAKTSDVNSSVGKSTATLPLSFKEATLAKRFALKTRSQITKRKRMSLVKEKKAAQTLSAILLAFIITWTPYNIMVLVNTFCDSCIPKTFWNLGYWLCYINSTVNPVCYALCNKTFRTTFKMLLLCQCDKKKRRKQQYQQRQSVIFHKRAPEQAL

Compound: O=C(O[C@H]1CN2CCC1CC2)N1CCc2ccccc2[C@@H]1c1ccccc1 [Solifenacin, (1R,3′R)-3′-quinuclidinyl-1-phenyl-1,2,3,4-tetrahydro-2-isoquinoline carboxylate]
- antagonistic action against muscarinic M3 receptors: excellent selective antagonistic action
